Patent publication US8846656B2, “Tetrahydropyrido-pyridine and tetrahydropyrido-pyrimidine compounds and use thereof as C5a receptor modulators” (Novartis AG, priority 2011, dated 2014)
pIC50: −log10 of the molar value. Read-outs that look alike come from different tables or passages of the source.

Assays:
human C5aR = human C5aR (Homo sapiens (Human), UniProt P21730); assay: FLIPR assay: inhibition of C5a-mediated calcium mobilization; assay type: cell-based; details: stable cell line over expressing human C5aR & Gα15, human C5a at EC50 (0.1-0.25 nM)
human C5aR, sequence (P21730 whole entry): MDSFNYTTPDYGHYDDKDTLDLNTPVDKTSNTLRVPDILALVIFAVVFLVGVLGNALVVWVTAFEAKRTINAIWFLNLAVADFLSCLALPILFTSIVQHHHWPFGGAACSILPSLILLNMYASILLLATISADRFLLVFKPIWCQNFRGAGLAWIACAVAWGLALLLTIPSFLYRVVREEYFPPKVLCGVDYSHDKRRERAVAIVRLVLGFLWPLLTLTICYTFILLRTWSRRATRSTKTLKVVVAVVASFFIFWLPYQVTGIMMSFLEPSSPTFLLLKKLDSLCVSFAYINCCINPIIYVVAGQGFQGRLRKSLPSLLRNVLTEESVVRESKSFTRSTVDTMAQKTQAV
How it was run: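 Compounds were added for 30 minutes at room temperature (1% DMSO) ahead of C5a stimulation. Before this, cells were dye-loaded for 1 h at 37° C: calcium 5 with 2.5 mM probenecid in HBSS, 20 mM HEPES, 0.1% BSA. Cells co-express human C5aR and Gα15; read-out is FLIPR Tetra calcium flux.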

CD11b = assay: Human whole blood CD11b up-regulation assay; assay type: cell-based; details: 2 nM human C5a, CD15+ granulocytes, read-out: hCD11b IC50
How it was run: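 Flow cytometric read-out: CD11b median fluorescence intensity of CD15+ granulocytes, 10,000 events. Stimulus was 2 nM human C5a for 15 min at room temperature, following 10 min compound exposure in 1% DMSO in fresh sodium-heparin whole blood; staining done on ice and erythrocytes lysed.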

SMILES | pIC50 (human C5aR) | pIC50 (CD11b; Homo sapiens) | pIC50 (CD11b)
CO[C@@H]1CCN(c2nc(-c3c(C)cccc3C)nc3c2CN(c2cc(C(C)C)nn2C)CC3)[C@H](C)C1 [Example 23-C, 2-(2,6-dimethylphenyl)-6-(3-isopropyl-1-methyl-1H-pyrazol-5-yl)-4-((2R,4R)-4-methoxy-2-methylpiperidin-1-yl)-5,6,7,8-tetrahydropyrido[4,3-d]pyrimidine] | 7.40 | 7.02 | –
CO[C@@H]1CCN(c2nc(-c3c(C)ccc4[nH]nc(C)c34)nc3c2CN(c2cc(C(C)C)nn2C)CC3)[C@H](C)C1 [Example 23-G, 2-(3,5-dimethyl-1H-indazol-4-yl)-6-(3-isopropyl-1-methyl-1H-pyrazol-5-yl)-4-((2R,4R)-4-methoxy-2-methylpiperidin-1-yl)-5,6,7,8-tetrahydropyrido[4,3-d]pyrimidine] | 8.70 | 7.60 | –
Cc1ccc(C(C)C)cc1N1CCc2nc(-c3c(C)ccc4[nH]nc(C)c34)nc(N3CCCC[C@H]3C)c2C1 [Example 21-AM, (R)-2-(3,5-dimethyl-1H-indazol-4-yl)-6-(5-isopropyl-2-methylphenyl)-4-(2-methylpiperidin-1-yl)-5,6,7,8-tetrahydropyrido[4,3-d]pyrimidine] | 9.00 | 8.15 | –
Cc1ccc(C(C)C)cc1N1CCc2nc(-c3c(C)cccc3C)nc(N3C[C@H](C)N(CC(N)=O)C[C@H]3C)c2C1 [Example 28-B] | 8.52 | – | 6.97
CO[C@H]1CCN(c2nc(-c3c(C)ccc4[nH]nc(C)c34)nc3c2CN(c2cc(C(F)(F)F)nn2C)CC3)CC1(C)C [Example 23-K, (S)-2-(3,5-dimethyl-1H-indazol-4-yl)-4-(4-methoxy-3,3-dimethylpiperidin-1-yl)-6-(1-methyl-3-(trifluoromethyl)-1H-pyrazol-5-yl)-5,6,7,8-tetrahydropyrido[4,3-d]pyrimidine] | 7.19 | 7.96 | –
CC(=O)N1CCN(c2nc(-c3cccc4[nH]cc(C)c34)nc3c2CN(c2cc(C4(C)COC4)ccc2C)CC3)[C@H](C)C1 [Example 26-B, (R)-1-(3-Methyl-4-(2-(3-methyl-1H-indol-4-yl)-6-(2-methyl-5-(3-methyloxetan-3-yl)phenyl)-5,6,7,8-tetrahydropyrido[4,3-d]pyrimidin-4-yl)piperazin-1-yl)ethanone] | 7.70 | 6.04 | –
CO[C@@H]1CCN(c2nc(-c3c(C)ccc4[nH]nc(C)c34)nc3c2CN(c2cc(C4(C)COC4)ccc2C)CC3)[C@H](C)C1 [Example 21-R, 2-(3,5-dimethyl-1H-indazol-4-yl)-4-((2R,4R)-4-methoxy-2-methylpiperidin-1-yl)-6-(2-methyl-5-(3-methyloxetan-3-yl)phenyl)-5,6,7,8-tetrahydropyrido[4,3-d]pyrimidine] | 9.00 | 7.82 | –
COC1CCN(c2nc(-c3c(C)cccc3C)nc3c2CN([C@@H](C)c2ccccc2)CC3)CC1(C)C (mixture of isomers) [Example 33-C, (±)-2-(2,6-Dimethylphenyl)-4-(4-methoxy-3,3-dimethylpiperidin-1-yl)-6-((S)-1-phenylethyl)-5,6,7,8-tetrahydropyrido[4,3-d]pyrimidine] | 7.10 | 6.62 | –
Cc1ccc(C(C)C)cc1N1CCc2nc(-c3c(C)ccc4[nH]nc(C)c34)nc(N3CCOC[C@H]3C)c2C1 [Example 65-K, (R)-4-(2-(3,5-dimethyl-1H-indazol-4-yl)-6-(5-isopropyl-2-methylphenyl)-5,6,7,8-tetrahydropyrido[4,3-d]pyrimidin-4-yl)-3-methylmorpholine] | 8.70 | 7.59 | –
CO[C@@H]1CCN(c2nc(-c3c(C)cccc3C)nc3c2CN(c2cc(C(F)(F)F)ccc2C)CC3)[C@H](C)C1 [Example 21-AK, 2-(2,6-dimethylphenyl)-4-((2R,4R)-4-methoxy-2-methylpiperidin-1-yl)-6-(2-methyl-5-(trifluoromethyl)phenyl)-5,6,7,8-tetrahydropyrido[4,3-d]pyrimidine] | 8.30 | 7.29 | –
Cc1ccc(C(F)(F)F)cc1N1CCc2nc(-c3cccc4[nH]cc(C)c34)nc(N3CCN(CC(N)=O)[C@H](C)C3)c2C1 [Example 24-G, (R)-2-(2-methyl-4-(2-(3-methyl-1H-indol-4-yl)-6-(2-methyl-5-(trifluoromethyl)phenyl)-5,6,7,8-tetrahydropyrido[4,3-d]pyrimidin-4-yl)piperazin-1-yl)acetamide] | 8.15 | 6.17 | –
CO[C@@H]1CCN(c2nc(-c3c(C(F)(F)F)cnc4[nH]ccc34)nc3c2CN(c2cc(C(C)C)ccc2C)CC3)[C@H](C)C1 [Example 22-C, 6-(5-Isopropyl-2-methylphenyl)-4-((2R,4R)-4-methoxy-2-methylpiperidin-1-yl)-2-(5-(trifluoromethyl)-1H-pyrrolo[2,3-b]pyridin-4-yl)-5,6,7,8-tetrahydropyrido[4,3-d]pyrimidine] | 8.70 | 7.77 | –
CO[C@@H]1CCN(c2nc(-c3c(C)cccc3C)nc3c2CN(c2cc(C4(C)COC4)ccc2C)CC3)[C@H](C)C1 [Example 21-K, 2-(2,6-dimethylphenyl)-4-((2R,4R)-4-methoxy-2-methylpiperidin-1-yl)-6-(2-methyl-5-(3-methyloxetan-3-yl)phenyl)-5,6,7,8-tetrahydropyrido[4,3-d]pyrimidine] | 8.70 | 7.96 | –
Cc1ccc2[nH]nc(C)c2c1-c1nc2c(c(N3C[C@@H](O)[C@@H]3C)n1)CN(c1c(Cl)c(C3CC3)nn1C)CC2 (racemic) [Example 69-H, (trans)-1-(6-(4-chloro-3-cyclopropyl-1-methyl-1H-pyrazol-5-yl)-2-(3,5-dimethyl-1H-indazol-4-yl)-5,6,7,8-tetrahydropyrido[4,3-d]pyrimidin-4-yl)-2-methylazetidin-3-ol] | 8.40 | 6.71 | –
Cc1ccc(C(C)C)cc1N1CCc2nc(-c3c(C)ccc4[nH]nc(C)c34)nc(OCCN3CCOCC3)c2C1 [Example 63-I, 4-(2-((2-(3,5-dimethyl-1H-indazol-4-yl)-6-(5-isopropyl-2-methylphenyl)-5,6,7,8-tetrahydropyrido[4,3-d]pyrimidin-4-yl)oxy)ethyl)morpholine] | 7.49 | 7.22 | –
Cc1ccc(F)cc1N1CCc2nc(-c3cccc4[nH]cc(C)c34)nc(N3CCN(CC(N)=O)[C@H](C)C3)c2C1 [Example 24-E, (R)-2-(4-(6-(5-fluoro-2-methylphenyl)-2-(3-methyl-1H-indol-4-yl)-5,6,7,8-tetrahydropyrido[4,3-d]pyrimidin-4-yl)-2-methylpiperazin-1-yl)acetamide] | 7.12 | 6.41 | –
CO[C@@H]1CCN(c2nc(-c3cccc4[nH]cc(C)c34)nc3c2CN(c2cc(Cl)ccc2C)CC3)CC1(C)C [Example 17-BK, (R)-6-(5-chloro-2-methylphenyl)-4-(4-methoxy-3,3-dimethylpiperidin-1-yl)-2-(3-methyl-1H-indol-4-yl)-5,6,7,8-tetrahydropyrido[4,3-d]pyrimidine] | 6.79 | 7.40 | –
CO[C@@H]1CCN(c2nc(-c3c(C)cc(C)cc3C)nc3c2CN(c2cc(C(C)C)ccc2C)CC3)CC1(C)C [Example 21-AE, (R)-6-(5-isopropyl-2-methylphenyl)-2-mesityl-4-(4-methoxy-3,3-dimethylpiperidin-1-yl)-5,6,7,8-tetrahydropyrido[4,3-d]pyrimidine] | 8.05 | 7.03 | –
